From patent publication US5656603A (Loyola University of Chicago, priority 1995, dated 1997)

Key:
Format in all cases: biochemical
[1] = biological target: T1, recombinant E. coli aminopeptidase P (Escherichia coli, UniProt P15034); assay: Aminopeptidase P inhibition, release of arginine from Arg-Pro-Pro (fluorescent assay)
T1 construct: supplied by Dr. Tadashi Yoshimoto (Nagasaki University)
Excerpt: (§1) Enzymes--Membrane-bound aminopeptidase P was purified to homogeneity from bovine lung (14) and from rat lung. Partially purified membrane-bound aminopeptidase P from human lung was obtained by treatment of lung microsomes with phosphatidylinositol-specific phospholipase C (B. thuringiensis) (ICN, Costa Mesa, Calif.) followed by centrifugation as described previously (14). Membrane dipeptidase was purified from rat lung microsomes (manuscript in preparation). Recombinant E. coli aminopeptidase P (22) and purified lamb kidney prolyl oligopeptidase (23) were generally supplied by Dr. Tadashi Yoshimoto (Nagasaki University). Purified porcine kidney prolidase and purified porcine kidney aminopeptidase M was obtained from Sigma (St. Louis, Mo.).
Enzyme Kinetics--Aminopeptidase P activity was determined by measuring the release of arginine from Arg-Pro-Pro by a fluorescent assay described previously (14). […] Each mixture was run in duplicate. Aliquots were removed from each incubation mixture at various times and assayed for the amount of arginine present to determine the reaction velocity. In general, reaction velocities were calculated from data representing less than 20% cleavage of substrate. Ki and Ki ' (=αKi) were determined from plots of 1/v versus concentration of inhibitor "i" (26) and S/v versus concentration of inhibitor "i" (27), respectively. These parameters were also determined from the slope replot and 1/v-intercept replot, respectively, of the 1/v versus 1/S plot (28). See e.g., FIG. 1B. The values from the two treatments of the data were averaged for each experiment. Experiments for each enzyme preparation were performed twice and the results averaged.

prolyl oligopeptidase = prolyl oligopeptidase (Ovis aries, UniProt A0ACI6PCU6); assay: Specificity of apstatin: prolyl oligopeptidase; conditions: purified, lamb kidney; Bk, pH 6.8, HPLC-1
Excerpt: as §1
(§2) Specificity of Apstatin--Apstatin was assayed for its ability to inhibit several other peptidases. […] Unless otherwise indicated, the source of each enzyme activity was a detergent extract of bovine lung prepared as described in (12-13). Activities were determined by a modification of the fluorescent assay described above (indicated by "FLUO") or by HPLC separation and quantitation of reaction products using the method described in (12) (method "HPLC-1") or the method described below (method "HPLC-2"). […]

[2] = biological target: T2, aminopeptidase A (EC 3.4.11.7) (Rattus norvegicus, UniProt P50123); assay: Specificity of apstatin: aminopeptidase A; conditions: rat lung microsomes; α-Glu-β-Na, pH 6.8, HPLC-1
T2 construct: aminopeptidase A (EC 3.4.11.7) (rat lung microsomes); from tissue; host or cells: rat lung microsomes
Description: as §2

[3] = biological target: T3, dipeptidyl-peptidase IV (EC 3.4.14.5) (Bos taurus, UniProt P81425); assay: Specificity of apstatin: dipeptidyl-peptidase IV; conditions: detergent extract of bovine lung; Gly-Pro-β-NA, pH 6.8, FLUO
T3 construct: Unless otherwise indicated, the source of each enzyme activity was a detergent extract of bovine lung; from tissue; host or cells: detergent extract of bovine lung
Description: as §2

T1 sequence (P15034 whole entry): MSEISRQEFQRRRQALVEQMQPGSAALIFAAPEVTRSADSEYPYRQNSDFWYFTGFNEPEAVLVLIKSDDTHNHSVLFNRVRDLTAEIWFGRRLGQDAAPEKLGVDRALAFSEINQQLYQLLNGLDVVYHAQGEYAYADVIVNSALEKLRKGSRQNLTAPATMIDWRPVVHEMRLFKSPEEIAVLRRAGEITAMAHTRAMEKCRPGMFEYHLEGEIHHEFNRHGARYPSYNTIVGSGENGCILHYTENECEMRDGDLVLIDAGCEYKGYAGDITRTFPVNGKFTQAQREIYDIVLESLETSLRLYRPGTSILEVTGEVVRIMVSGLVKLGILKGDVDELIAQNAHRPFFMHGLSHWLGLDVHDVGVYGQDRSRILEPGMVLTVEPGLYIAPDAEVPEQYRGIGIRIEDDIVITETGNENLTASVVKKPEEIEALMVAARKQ
Chain of prolyl oligopeptidase (A0ACI6PCU6 entry or part of it): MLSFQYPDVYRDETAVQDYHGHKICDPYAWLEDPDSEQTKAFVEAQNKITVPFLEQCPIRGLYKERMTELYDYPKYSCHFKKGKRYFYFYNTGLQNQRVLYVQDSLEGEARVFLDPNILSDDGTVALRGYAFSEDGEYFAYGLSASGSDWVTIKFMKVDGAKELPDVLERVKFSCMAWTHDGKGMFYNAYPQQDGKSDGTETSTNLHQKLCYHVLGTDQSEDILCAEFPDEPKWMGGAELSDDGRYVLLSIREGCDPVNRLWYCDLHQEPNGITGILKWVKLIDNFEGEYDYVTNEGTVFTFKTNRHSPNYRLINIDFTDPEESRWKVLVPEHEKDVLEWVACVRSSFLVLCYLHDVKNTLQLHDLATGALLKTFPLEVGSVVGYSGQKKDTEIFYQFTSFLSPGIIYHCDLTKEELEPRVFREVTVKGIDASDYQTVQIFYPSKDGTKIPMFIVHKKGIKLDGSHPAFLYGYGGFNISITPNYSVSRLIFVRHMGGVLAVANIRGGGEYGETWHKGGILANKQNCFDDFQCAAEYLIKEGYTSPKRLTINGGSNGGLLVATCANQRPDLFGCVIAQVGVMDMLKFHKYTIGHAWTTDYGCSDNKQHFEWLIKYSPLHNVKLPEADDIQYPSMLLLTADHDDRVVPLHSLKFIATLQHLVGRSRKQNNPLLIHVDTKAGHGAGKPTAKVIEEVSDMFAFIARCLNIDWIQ
T2 sequence (P50123 whole entry): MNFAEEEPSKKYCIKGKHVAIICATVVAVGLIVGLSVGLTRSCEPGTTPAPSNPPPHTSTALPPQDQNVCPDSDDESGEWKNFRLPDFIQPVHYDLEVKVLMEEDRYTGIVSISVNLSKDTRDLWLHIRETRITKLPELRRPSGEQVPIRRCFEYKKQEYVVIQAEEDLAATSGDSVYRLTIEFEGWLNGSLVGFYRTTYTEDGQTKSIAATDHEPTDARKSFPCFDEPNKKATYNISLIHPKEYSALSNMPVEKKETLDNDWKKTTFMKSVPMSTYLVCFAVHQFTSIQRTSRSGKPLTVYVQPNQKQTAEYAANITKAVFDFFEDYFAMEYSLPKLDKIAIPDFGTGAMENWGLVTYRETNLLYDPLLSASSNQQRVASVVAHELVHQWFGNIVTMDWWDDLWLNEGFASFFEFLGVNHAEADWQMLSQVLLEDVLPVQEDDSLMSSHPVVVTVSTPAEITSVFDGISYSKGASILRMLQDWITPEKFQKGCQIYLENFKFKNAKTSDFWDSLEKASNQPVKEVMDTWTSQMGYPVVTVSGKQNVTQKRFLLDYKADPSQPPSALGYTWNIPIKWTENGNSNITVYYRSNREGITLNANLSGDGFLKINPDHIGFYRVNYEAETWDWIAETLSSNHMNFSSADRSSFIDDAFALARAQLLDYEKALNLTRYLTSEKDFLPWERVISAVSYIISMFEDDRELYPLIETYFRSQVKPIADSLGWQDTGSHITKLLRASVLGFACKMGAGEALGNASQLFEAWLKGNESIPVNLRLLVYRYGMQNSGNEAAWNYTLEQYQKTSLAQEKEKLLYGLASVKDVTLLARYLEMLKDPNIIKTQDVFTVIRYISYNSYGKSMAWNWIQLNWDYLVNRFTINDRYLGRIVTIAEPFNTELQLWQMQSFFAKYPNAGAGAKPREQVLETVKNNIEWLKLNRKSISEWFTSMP
T3 sequence (P81425 whole entry): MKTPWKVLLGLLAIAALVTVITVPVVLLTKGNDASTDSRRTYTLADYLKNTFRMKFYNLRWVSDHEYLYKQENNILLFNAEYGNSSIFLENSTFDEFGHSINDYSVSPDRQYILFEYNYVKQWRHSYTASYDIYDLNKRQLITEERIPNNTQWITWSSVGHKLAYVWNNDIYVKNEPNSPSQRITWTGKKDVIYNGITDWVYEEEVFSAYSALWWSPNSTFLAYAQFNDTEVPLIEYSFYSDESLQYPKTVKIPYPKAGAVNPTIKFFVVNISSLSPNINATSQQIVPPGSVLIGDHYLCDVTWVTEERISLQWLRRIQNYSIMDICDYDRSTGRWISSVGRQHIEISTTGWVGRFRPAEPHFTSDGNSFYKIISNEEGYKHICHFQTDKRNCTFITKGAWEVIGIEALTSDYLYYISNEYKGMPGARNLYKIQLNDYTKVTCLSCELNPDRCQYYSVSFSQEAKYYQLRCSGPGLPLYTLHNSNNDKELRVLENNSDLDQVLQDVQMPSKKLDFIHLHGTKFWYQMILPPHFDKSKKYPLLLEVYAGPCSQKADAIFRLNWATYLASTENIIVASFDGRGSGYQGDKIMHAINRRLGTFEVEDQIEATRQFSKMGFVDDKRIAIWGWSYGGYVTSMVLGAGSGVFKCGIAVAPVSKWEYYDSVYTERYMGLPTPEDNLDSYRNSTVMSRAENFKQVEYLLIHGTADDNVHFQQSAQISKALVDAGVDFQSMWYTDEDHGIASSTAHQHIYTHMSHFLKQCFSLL

Q: How did the “α (αKi = equilibrium constant for enzyme-inhibitor binding at infinite substrate concentration)” value ([1]; E. coli, recombinant) turn out when C[C@H](NC(=O)[C@@H]1CCCN1C(=O)[C@@H]1CCCN1C(=O)[C@@H](O)[C@H](N)Cc1ccccc1)C(N)=O [apstatin, N-[(2S, 3R)-3-amino-2-hydroxy-4-phenylbutanoyl]-L-prolyl-L-prolyl-Lalaninamide] was run?
A: 2.5

Q: What about the Ki ([1]; E. coli, recombinant, substrate Arg-Pro-Pro, 0.1 M Hepes pH 8.0, 39° C.) of the same compound?
A: 14 µM

Q: And the type of inhibition ([1]; recombinant E. coli aminopeptidase P)?
A: linear mixed-type

Q: And the IC50 (prolyl oligopeptidase)?
A: > 800 µM

Q: What about the IC50 [2] of the same compound?
A: > 800 µM

Q: And the IC50 [3]?
A: 1100 µM
